Assay: Spreading experiments on a modified Wilhelmy balance
Type: physicochemical
Conditions: Curosurf diluted to 20 mg/ml, 10 microl
Procedure: Experiments were performed at 37° C. using a modified Wilhelmy balance with a surface area of 20 cm^2. Standard amounts of Curosurf at various concentrations (10-80 mg/ml) were applied onto a hypophase of saline, approximately 40 mm from the dipping plate. In some experiments, CaCl2 (2 mM), dextran (30 mg/ml), or polymyxin B (2% on the weight of the surfactant, i.e. 0.4 mg/ml) was added to diluted surfactant material (20 mg/ml). The effect of albumin at low concentration (0.1 mg/ml) added to the hypophase was also investigated. Surface tension, measured 1 sec after administration of the sample was used as a parameter combining spreading and film formation by adsorption from the hypophase.

[1] = agent added to surfactant (CaCl2 2 mM, dextran 30 mg/ml, polymyxin B 2% = 0.4 mg/ml), no albumin
[2] = agent added to surfactant, albumin 0.1 mg/ml added to the hypophase

Surface tension at 1 sec (mN/m) [1]	Surface tension at 1 sec (mN/m) [2]	Compound
52 mN/m	70 mN/m	[Ca+2].[Cl-].[Cl-] [CaCl2]
28 mN/m	45 mN/m	polymyxin B

Reference: US20090170758A1, “COMPOSITIONS COMPRISING PULMONARY SURFACTANTS AND A POLYMYXIN HAVING IMPROVED SURFACE PROPERTIES” (Chiesi Farmaceutici S.p.A., priority 2002, published 2009)
